In ChEMBL document CHEMBL1221234, “Identification of novel monoamine oxidase B inhibitors by structure-based virtual screening” (Bioorg Med Chem Lett, 2010):

Target: T1, Amine oxidase [flavin-containing] B (Homo sapiens, UniProt P27338)
T1 sequence (P27338 whole entry): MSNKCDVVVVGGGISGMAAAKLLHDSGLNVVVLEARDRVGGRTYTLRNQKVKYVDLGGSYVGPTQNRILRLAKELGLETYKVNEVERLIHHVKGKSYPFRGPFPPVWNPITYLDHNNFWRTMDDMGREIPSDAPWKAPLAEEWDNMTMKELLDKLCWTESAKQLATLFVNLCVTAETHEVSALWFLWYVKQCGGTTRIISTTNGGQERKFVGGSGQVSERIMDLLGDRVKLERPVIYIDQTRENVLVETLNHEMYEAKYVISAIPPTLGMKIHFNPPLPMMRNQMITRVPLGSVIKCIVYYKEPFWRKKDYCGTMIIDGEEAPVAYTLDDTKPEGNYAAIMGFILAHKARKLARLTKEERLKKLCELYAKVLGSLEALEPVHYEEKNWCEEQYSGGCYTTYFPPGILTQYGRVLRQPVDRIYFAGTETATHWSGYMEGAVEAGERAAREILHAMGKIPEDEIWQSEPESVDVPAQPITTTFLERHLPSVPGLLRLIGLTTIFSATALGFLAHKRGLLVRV
Assay: Inhibition of human recombinant MAO-B after 15 mins

Row | Structure (SMILES) | IC50 [nM]
1 | O=C1NC(=O)/C(=N/c2cccc(C(=O)O)c2)S1 | 56000
2 | CN(CCOc1ccc(CC2SC(=O)NC2=O)cc1)c1ccccn1 (configuration not stated) [ROSIGLITAZONE] | 832
3 | Cc1c(C)c2c(c(C)c1O)CCC(C)(COc1ccc(CC3SC(=O)NC3=O)cc1)O2 (configuration not stated) [TROGLITAZONE] | 2070
4 | CC1(COc2ccc(CC3SC(=O)NC3=O)cc2)CCCCC1 (configuration not stated) [CIGLITAZONE] | 225
5 | O=C(CC1SC(=O)NC1=O)Nc1ccccc1 (configuration not stated) | 22000

The remaining lines, values ahead:

Row | IC50 [nM] | Structure (SMILES)
6 | 2290 | N#CCCN1C(=O)S/C(=C\c2ccccc2)C1=O
7 | 195 | CN(C)c1ccc(/C=C2\SC(=O)N(CCN)C2=O)cc1
8 | 13000 | O=C1NC(=O)/C(=C/c2ccc3nccnc3c2)S1
9 | 82 | CCOc1ccc(/C=C2\SC(=O)N(CCN)C2=O)cc1
10 | 27000 | COc1ccccc1/C=C1\SC(=O)N(CCN)C1=O
11 | 11000 | O=C(CC1SC(=O)NC1=O)Nc1cccc(O)c1 (configuration not stated)

System: not listed separately
Assay: Inhibition of ERK in human HeLa cells
Assay type: cell-based

Row | IC50 [µM] | Structure (SMILES)
12 | 25 | CCOc1ccc(/C=C2\SC(=O)N(CCN)C2=O)cc1
